Molecules are shown by their SMILES. pIC50: −log10 of the molar value. Several values for one entry are separate records, joined by “and”; a condition that tells them apart may be missing. Identical values can stand only once.

The target in this assay is MAPK14 (human) (UniProt Q16539). The experiment in a line: Inhibition of MAPK14 Kinase Activity.
MAPK14 (human), sequence (Q16539 whole entry, looked up): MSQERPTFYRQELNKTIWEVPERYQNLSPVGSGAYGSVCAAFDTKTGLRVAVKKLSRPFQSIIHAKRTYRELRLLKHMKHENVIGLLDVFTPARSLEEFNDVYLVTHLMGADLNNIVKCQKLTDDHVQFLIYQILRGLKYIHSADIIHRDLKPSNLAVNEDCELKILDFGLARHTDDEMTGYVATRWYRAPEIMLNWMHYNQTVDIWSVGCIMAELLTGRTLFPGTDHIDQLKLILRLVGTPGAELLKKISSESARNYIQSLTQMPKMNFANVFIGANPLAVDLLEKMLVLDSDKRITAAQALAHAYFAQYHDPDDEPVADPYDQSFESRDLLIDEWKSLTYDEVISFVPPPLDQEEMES
As a reminder, the pIC50 is the IC50 on a negative log10 scale, so that one unit is a factor of ten. Consider `O=C(CO)N1CCC(c2[nH]nc(-c3ccc(Cl)c(F)c3)c2-c2ccncn2)CC1`, for which the pIC50 is 6.34.
The same measure for `CC(C)(C)OC(=O)N1CCC(c2[nH]nc(-c3ccc(Cl)cc3F)c2-c2ccnc(NC3CCCC3)n2)CC1`: 8.00; for `O=C(CO)N1CCC(c2[nH]nc(-c3ccc(F)c(C(F)(F)F)c3)c2-c2ccncn2)CC1`: 6.47.
`C[C@H](N[C@H]1CC[C@@H](c2[nH]nc(-c3ccc(Cl)cc3)c2-c2ccncn2)CC1)c1ccccc1`: the pIC50 was 6.95 and 7.35.
As for `Cc1cc(F)ccc1-c1n[nH]c(C2CCN(C(=O)CO)CC2)c1-c1ccncn1`, the figure is 5.57; as for `Clc1ccc(-c2n[nH]c([C@H]3CC[C@@H](NC4CCCCC4)CC3)c2-c2ccncn2)cc1`, 6.63; as for `CN(C)CCNc1nccc(-c2c(-c3ccc(F)c(C(F)(F)F)c3)n[nH]c2C2CCNCC2)n1`, 6.95.
As for `C[C@@H](N[C@H]1CC[C@H](c2[nH]nc(-c3ccc(Cl)cc3)c2-c2ccncn2)CC1)c1ccc(F)cc1`, the figure is 8.24.
As for `O=C(CO)N1CCC(c2[nH]nc(-c3ccc(Cl)cc3)c2-c2ccnc(NC3CCCC3)n2)CC1`, the figure is 8.00; as for `O=C(C1CCCO1)N1CCC(c2[nH]nc(-c3ccc(Cl)cc3)c2-c2ccncn2)CC1` (centres undefined), 6.92.
`CN(C)CCNc1nccc(-c2c(-c3ccc(Cl)cc3)n[nH]c2C2CCN(C(=O)CO)CC2)n1` showed a pIC50 of 6.07.
As for `Cc1cc(-c2n[nH]c(C3CCN(C(=O)CO)CC3)c2-c2ccncn2)ccc1F`, the figure is 6.81; as for `CC(=O)O[C@@H](C(=O)N1CCC(c2[nH]nc(-c3ccc(Cl)cc3)c2-c2ccncn2)CC1)c1ccccc1`, 6.24.
`C[C@@H](N[C@H]1CC[C@H](c2[nH]nc(-c3ccc(Cl)cc3)c2-c2ccncn2)CC1)c1ccccc1` gave a pIC50 of 8.07.
As for `CN(C)CCNc1nccc(-c2c(-c3ccc(Cl)cc3F)n[nH]c2C2CCN(C)CC2)n1`, the figure is 6.00; as for `Fc1ccc(CN2CCC(c3[nH]nc(-c4ccc(Cl)cc4)c3-c3ccncn3)CC2)cc1`, 8.03.
The same measure for `CC(C)(C)OC(=O)N1CCC(c2[nH]nc(-c3ccc(Cl)cc3)c2-c2ccnc(O[C@H]3CCOC3)n2)CC1`: 5.77; for `COc1ccc(-c2n[nH]c(C3CCN(C(=O)CO)CC3)c2-c2ccncn2)cc1OC`: under 4.00.
As for `C[C@H](N[C@H]1CC[C@@H](c2[nH]nc(-c3ccc(Cl)cc3)c2-c2ccncn2)CC1)c1ccc(F)cc1`, the figure is 6.89 and 7.21.

The values above are taken from the Kinase Knowledgebase extract (Sharma et al. 2016).
